Reference: ChEMBL document CHEMBL1240361 (2010)

Experiments:
Type in all cases: functional
Staphylococcus aureus [1] = test: (§1) Antibacterial activity against methicillin-resistant Staphylococcus aureus infected in New Zealand white rabbit osteomyelitis model assessed as change in bacterial load in joint fluid per gram of tissue administered via constant iv infusion on day 3 post infection measured on day 7 by HPLC analysis
Staphylococcus aureus [2] = test: (§2) Antibacterial activity against methicillin-resistant Staphylococcus aureus infected in New Zealand white rabbit osteomyelitis model assessed as change in bacterial load in bone marrow per gram of tissue administered via constant iv infusion on day 3 post infection measured on day 7 by HPLC analysis
Staphylococcus aureus [3] = test: (§3) Antibacterial activity against methicillin-resistant Staphylococcus aureus infected in New Zealand white rabbit osteomyelitis model assessed as change in bacterial load in bone per gram of tissue administered via constant iv infusion on day 3 post infection measured on day 7 by HPLC analysis
Staphylococcus aureus [4] = test: as §1, with “infusion in presence of unloaded calcium-deficient apatites” for “infusion”
Staphylococcus aureus [5] = test: as §2, with “infusion in presence of unloaded calcium-deficient apatites” for “infusion”
Staphylococcus aureus [6] = test: as §3, with “infusion in presence of unloaded calcium-deficient apatites” for “infusion”
Staphylococcus aureus [7] = test: as §1, with “tissue at 25 ug/mg” for “tissue”, “calcium-deficient apatite” for “constant iv infusion”
Staphylococcus aureus [8] = test: as §2, with “tissue at 25 ug/mg” for “tissue”, “calcium-deficient apatite” for “constant iv infusion”
Staphylococcus aureus [9] = test: as §3, with “tissue at 25 ug/mg” for “tissue”, “calcium-deficient apatite” for “constant iv infusion”
Staphylococcus aureus [10] = test: as §1, with “tissue at 25 ug/mg” for “tissue”, “via calcium-deficient apatite followed by” for “via”
Staphylococcus aureus [11] = test: as §2, with “tissue at 25 ug/mg” for “tissue”, “via calcium-deficient apatite followed by” for “via”
Staphylococcus aureus [12] = test: as §3, with “tissue at 25 ug/mg” for “tissue”, “via calcium-deficient apatite followed by” for “via”
Staphylococcus aureus [13] = test: as §1, with “tissue at 100 ug/mg” for “tissue”, “calcium-deficient apatite” for “constant iv infusion”
Staphylococcus aureus [14] = test: as §2, with “tissue at 100 ug/mg” for “tissue”, “calcium-deficient apatite” for “constant iv infusion”
Staphylococcus aureus [15] = test: as §3, with “tissue at 100 ug/mg” for “tissue”, “calcium-deficient apatite” for “constant iv infusion”
Staphylococcus aureus [16] = test: as §1, with “tissue at 100 ug/mg” for “tissue”, “via calcium-deficient apatite followed by” for “via”
Staphylococcus aureus [17] = test: as §2, with “tissue at 100 ug/mg” for “tissue”, “via calcium-deficient apatite followed by” for “via”
Staphylococcus aureus [18] = test: as §3, with “tissue at 100 ug/mg” for “tissue”, “via calcium-deficient apatite followed by” for “via”
Staphylococcus aureus [19] = test: as §1, with “tissue at 500 ug/mg” for “tissue”, “calcium-deficient apatite” for “constant iv infusion”
Staphylococcus aureus [20] = test: as §2, with “tissue at 500 ug/mg” for “tissue”, “calcium-deficient apatite” for “constant iv infusion”
Staphylococcus aureus [21] = test: as §3, with “tissue at 500 ug/mg” for “tissue”, “calcium-deficient apatite” for “constant iv infusion”
Staphylococcus aureus [22] = test: as §1, with “tissue at 500 ug/mg” for “tissue”, “via calcium-deficient apatite followed by” for “via”
Staphylococcus aureus [23] = test: as §2, with “tissue at 500 ug/mg” for “tissue”, “via calcium-deficient apatite followed by” for “via”

CN[C@H](CC(C)C)C(=O)N[C@H]1C(=O)N[C@@H](CC(N)=O)C(=O)N[C@H]2C(=O)N[C@H]3C(=O)N[C@H](C(=O)N[C@H](C(=O)O)c4cc(O)cc(O)c4-c4cc3ccc4O)[C@H](O)c3ccc(c(Cl)c3)Oc3cc2cc(c3O[C@@H]2O[C@H](CO)[C@@H](O)[C@H](O)[C@H]2O[C@H]2C[C@](C)(N)[C@H](O)[C@H](C)O2)Oc2ccc(cc2Cl)[C@H]1O [VANCOMYCIN]
log10cfu (Staphylococcus aureus [1]): 0.03
log10cfu (Staphylococcus aureus [2]): 0.73
log10cfu (Staphylococcus aureus [3]): 0.61
log10cfu (Staphylococcus aureus [4]): 0.3
log10cfu (Staphylococcus aureus [5]): 0.75
log10cfu (Staphylococcus aureus [6]): 0.35
log10cfu (Staphylococcus aureus [7]): 0.56
log10cfu (Staphylococcus aureus [8]): 1.89
log10cfu (Staphylococcus aureus [9]): 1.97
log10cfu (Staphylococcus aureus [10]): 0.68
log10cfu (Staphylococcus aureus [11]): -3.14
log10cfu (Staphylococcus aureus [12]): -2.4
log10cfu (Staphylococcus aureus [13]): 0.05
log10cfu (Staphylococcus aureus [14]): 3.41
log10cfu (Staphylococcus aureus [15]): 2.35
log10cfu (Staphylococcus aureus [16]): 0.9
log10cfu (Staphylococcus aureus [17]): -4.03
log10cfu (Staphylococcus aureus [18]): -4.63
log10cfu (Staphylococcus aureus [19]): 0.29
log10cfu (Staphylococcus aureus [20]): 4.08
log10cfu (Staphylococcus aureus [21]): 3.57
log10cfu (Staphylococcus aureus [22]): 1.69
log10cfu (Staphylococcus aureus [23]): 4.21
